According to patent publication US8080235B2, “Protein kinase A reporters useful in high throughput assays” (The Johns Hopkins University, priority 2005, dated 2011):
Where two headings read alike, the source gives them in different places. Blank lines part the entries; values can stand above or below the compound they belong to.

How the values were obtained:
[1] = system: cAMP; assay: ICUE3 live cell high-throughput cAMP plate reader assay (cyan/yellow emission ratio); format: cell-based
Protocol: (§1) Live Cell Plate Reading. HEK-293 cells were transfected with AKAR3 or ICUE3 using calcium phosphate at 40% confluency and grown for 40 hours. Cells were then trypsinized and plated in a Costar 3603 96-well plate (Corning) at a density of 150,000 cells per well. After incubation for another 24 hours, cells were washed once with HBSS and left in 150 μl of HBSS at 20-25° C. Fluorescence reading was taken on a FLUOstar OPTIMA fluorescence microplate reader (BMG Labtechnologies Inc.) using a 420DF20 excitation filter and two emission filters (470DF40 for cyan and 535DF25 for yellow). A baseline was established in three cycles, each consisting of a full plate reading of yellow intensity, followed by a reading of cyan intensity.
(§2) Each cycle lasted between 64 and 92 seconds. Cells were then treated with ISO, Fsk, H89, Propranolol (Pro; Sigma), or 3-isobutyl-1-methylxanthine (IBMX; Sigma) as indicated. Readings were taken in additional cycles. FRET change was calculated as the percent increase of emission ratios (yellow-to-cyan for AKAR and cyan-to-yellow for ICUE) over baseline for each well during a given cycle. Several parameters were calculated to assess the efficiency of the assay, including Z′ factor, coefficient of variation, and signal to noise (S/N) ratio (22).
To follow the activity of the signaling pathway and to assay related drug targets in parallel, we developed a live cell-based high-throughput assay for cAMP, a second messenger that is generated via activation of Gs-coupled GPCRs and exerts its effects by activating PKA and other effectors. Similar improvement approaches were first applied to create a reporter that more than doubled the response of previous “Indicator for cAMP Using Epac” (ICUE), which generates a decrease in FRET upon binding of cAMP (FIG. 5). […] Possible sources of the variation and reduced signal are transfection efficiency and expression variability.

[2] = system: PKA activity; assay: AKAR3 live cell 96-well plate reader assay (yellow/cyan emission ratio); format: cell-based; conditions: for increase in yellow-to-cyan emission ratio of AKAR3: HEK-203 (sic) cells expressing AKAR3, 96-well plate, n=3
Protocol: as §1, §2
AKAR2 (FIG. 4). This reporter, AKAR3 (FIG. 1b), was tested in a 96-well plate format. […] As negative controls, addition of buffer of 2% DMSO generated minimal changes in emission ratios. This 96-well plate assay was sensitive and reproducible, with a signal to noise ratio of 30.3, a Z′ factor of 0.84, and a coefficient of variation (CV) of 1.8% for the Fsk-stimulated response.
To provide specific readout of compartmentalized PKA activities, we introduced a C-terminal nuclear export signal (NES) to AKAR3 . In the plate reader assay using AKAR3 -NES (FIG. 1d), cytosolic PKA activity was recorded without contamination of nuclear activity, which has slower kinetics due to diffusional translocation of the catalytic subunit from cytosol to nucleus. […] Thus, sensor targeting provides increased temporal and spatial resolution and can be used to reveal how individual signaling microdomains, such as kinase-containing signaling complexes, are affected by drugs or other perturbations, adding another level of capacity to the non-image-based high-throughput assays of the invention.

[3] = system: PKA activity; assay: AKAR single-cell live imaging in HEK-293 cells; format: cell-based; conditions: for AKAR3 response in single cell imaging: HEK-293, 10 μM epinephrine, 50 μM ritodrine, IBMX alone
Protocol: Cell Culture and Imaging. HEK-293 cells were plated onto sterilized glass coverslips in 35 mm dishes and grown to ˜50% confluency in DMEM (10% FBS at 37° C. with 5% CO2). Cells were transfected with calcium phosphate and grown for 12-24 hours before imaging. After washing once with Hanks' balanced salt solution (HBSS), cells were maintained in buffer in the dark at 20-25° C. Isoproterenol (ISO; Sigma), forskolin (Fsk; Calbiochem), H89 (Sigma) were added as indicated. Cells were imaged on a Zeiss Axiovert 200M microscope with a 40×/1.3NA oil-immersion objective lens and cooled CCD camera as described in (21). Briefly, dual emission ratio imaging used a 420DF20 excitation filter, a 450DRLP dichroic mirror, and two emission filters (475DF40 for cyan and 535DF25 for yellow). The ratios of yellow-to-cyan (for AKAR) or cyan-to-yellow (for ICUE) emissions were then calculated at different time points and normalized by dividing all ratios by the emission ratio before stimulation, setting basal emission ratio as 1.
One of the important advantages of genetically encoded reporters of the invention is that they can be targeted to subcellular locations via various targeting motifs. However, in some cases, subcellular targeting may sacrifice the response amplitude of a reporter. To determine whether the improved dynamic range of AKAR3 leads to sensitive detection of subcellular PKA activities, AKAR3 was targeted to two cellular compartments.

[4] = system: PKA activity; assay: AKAR3 high-throughput screening of Johns Hopkins Clinical Compound Library; format: cell-based; conditions: for agonist screen: AKAR response to compound alone: 10 μM, hit = larger than 6 times the standard deviation above negative control
Protocol: Live Cell High-Throughput Screening. […] After incubation for 24 hours, cells were washed once with HBSS and left in 190 μl of HBSS at 20-25° C. Fluorescence readings were taken as described above, with each cycle lasting 90 seconds. Following baseline acquisition, cells in each experimental well were treated with a compound from the Johns Hopkins Clinical Compound Library to a final concentration of 10 μM. Control cells were treated with 10 μL of 10% fetal bovine serum (FBS) in a solution of phosphate buffered saline (PBS) at pH 7.4, which is the solution used to dissolve library compounds.
Ten final cycles were then performed.
FRET responses were calculated as described above. […] Agonist hits were defined as compounds eliciting responses larger than six times the standard deviation above the baseline. Antagonist hits were defined as compounds which decreased the ISO stimulated response by 50% or by six times the standard deviation.
In a primary screening, 160 compounds from the Johns Hopkins Clinical Compound Library were added to AKAR3-expressing HEK-293 cells in individual wells of 96-well plates to a final concentration of 10 μM after a base line reading. Time courses were recorded to monitor any fluorescence changes upon drug addition and to identify hits which activate PKA as potential agonists.
Potential agonists were identified by selecting compounds which stimulated emission ratio changes larger than 6 times the standard deviation above the negative control (FIG. 3a ).

[5] = system: cAMP; assay: ICUE single cell imaging, ISO stimulation in the presence of IBMX; format: cell-based; conditions: FIG. 3e, read-out: inhibition of ISO-stimulated ICUE response
Protocol: FIG. 3. High-throughput screening. FIG. 3A, normalized emission ratio (yellow/cyan) from cells expressing AKAR3 treated with individual library compounds, compared to the negative control in which only buffer was added and the positive control in which ISO (250 nM) was added (agonist screen). Individual bars along the X axis represent individual library compounds. The asterisks indicate responses of ritrodrine, ISO, and epinephrine. FIG. 3B, normalized emission ratio (yellow/cyan) from cells expressing AKAR3 first treated with individual library compounds for about 15 minutes, then stimulated by ISO (250 nM) (antagonist screen). The positive control in which only ISO was added and the negative control in which only buffer was added are shown as labeled. Individual bars along the X axis represent individual library compounds. The asterisks indicate responses from epinephrine and propranolol treated cells in response to ISO. FIG. 3C, representative time courses of emission ratio (yellow/cyan) change of cells expressing AKAR3 treated with 10 μM epinephrine followed by 50 μM FSK in single-cell imaging experiments. […]
Cell Culture and Imaging. […] The ratios of yellow-to-cyan (for AKAR) or cyan-to-yellow (for ICUE) emissions were then calculated at different time points and normalized by dividing all ratios by the emission ratio before stimulation, setting basal emission ratio as 1. […]

[6] = biological target: catalytic subunit of PKA (Homo sapiens, UniProt P17612); assay: In vitro kinase assay with purified AKAR3 protein; format: biochemical; conditions: n=2
Protocol: FIG. 7. Further characterization of AKAR3. Representative time courses of plasma membrane-targeted AKAR3 (FIG. 7a ) and nuclear-targeted AKAR3 (FIG. 7b ) in HEK-293 cells stimulated with 1 μM ISO and 50 μM FSK, respectively. FIG. 7c , AKAR3-expressing HEK-293 cells were treated with 200 nM phorbol dibutyrate (PDBu), a protein kinase C activator, followed by the addition of 1 μM isoproterenol, then 50 μM forskolin. FIG. 7d , representative time courses of the emission ratio change of AKAR3 in the presence (closed squares) and absence (open circles) of the specific PKA inhibitor, PKI. FIG. 7e , emission spectra of the purified AKAR3 before (squares) and after (diamonds) phosphorylation by PKA (excitation 434 nm). The curve using triangle symbols depicts the spectrum of the reporter after digestion with trypsin to quench the energy transfer and quantify the FRET. FIG. 7f , a representative phosphorylation time course for purified AKAR3 protein in the presence of PKA catalytic subunit and 1 mM ATP.
Lastly, in vitro kinase assays were carried out using purified AKAR3 protein from mammalian cell lysates.

Compound: C=C[C@@]1(C)CC(=O)[C@]2(O)[C@@]3(C)[C@@H](O)CCC(C)(C)[C@@H]3[C@H](O)[C@H](OC(C)=O)[C@@]2(C)O1 [Fsk, forskolin]
Emax ([1]; stable cell line, read-out: maximum response of ICUE assay): 43.3%
Emax ([1]; transient transfection, Fsk in the presence of 100 μM IBMX, FIG. 2c, read-out: maximum response of ICUE3): 24.1%
increase in yellow-to-cyan emission ratio of AKAR3 [2]: 25.7%±0.7%
average nuclear response of nuclear-targeted AKAR3 ([3]; HEK-293, 50 μM FSK, n=3, slower kinetics, FIG. 7b): 38.6%±8.45%

Compound: O=S(=O)(NCCNC/C=C/c1ccc(Br)cc1)c1cccc2cnccc12 [H89]
effect on Fsk-stimulated ICUE3 response ([1]; FIG. 2c): increased the ICUE3 response
effect on Fsk-stimulated AKAR3 response ([2]; FIG. 2d): diminished
effect on AKAR3 response (PKA specificity) ([3]; PKI co-expression or H89 pretreatment): abolished

Compound: CC(C)Cn1c(=O)n(C)c(=O)c2[nH]cnc21 [IBMX, 3-isobutyl-1-methylxanthine]
effect of supplementing on ICUE3 responses ([1]; FIG. 2): sustained responses and increased their amplitude
effect of supplementing on AKAR3 responses ([2]; FIG. 2): sustained responses and increased their amplitude
effect on ritodrine-stimulated AKAR3 response ([3]; 100 μM IBMX after 50 μM ritodrine, FIG. 3d): enhanced
AKAR3 response in single cell imaging [3]: did not generate any AKAR responses

Compound: CC(C)NCC(O)c1ccc(O)c(O)c1 (stereo not shown) [ISO, isoproterenol]
agonist screen: AKAR response to compound alone [4]: stimulated AKAR responses on their own
emission ratio change with AKAR3-NES compared to the AKAR3 assay ([2]; AKAR3-NES, plate reader, FIG. 1d): larger increase in emission ratio followed by a more rapid decrease
increase in yellow-to-cyan emission ratio of AKAR3 [2]: 22.1%±0.7%
average response of plasma membrane-targeted AKAR3 ([3]; HEK-293, 1 μM ISO, n=3, FIG. 7a): 34.3%±5.4%
maximum response (emission ratio elevation) of AKAR3.2 ([3]; HEK-293 cells expressing AKAR3.2, 1 μM ISO, FIG. 6): approximately 65%

Compound: C=CC1=C(C)/C(=C/c2[nH]c(Cc3[nH]c(/C=C4\NC(=O)C(C)=C4C=C)c(C)c3CCC(=O)O)c(CCC(=O)O)c2C)NC1=O [bilirubin]
inhibition at 1 µM ([5]; 1 μM bilirubin): 40%
inhibition at 10 µM ([5]; 10 μM bilirubin): > 60%

Compound: CNC[C@H](O)c1ccc(O)c(O)c1 [epinephrine]
antagonist screen: effect on ISO-stimulated AKAR response ([4]; 10 μM compound about 15 min, then 0.25 μM ISO): decreased the cell response to subsequent stimulation by ISO
agonist screen: AKAR response to compound alone [4]: stimulated AKAR responses on their own
AKAR3 response in single cell imaging [3]: stimulates cAMP production and PKA activation

Compound: CC(NCCc1ccc(O)cc1)C(O)c1ccc(O)cc1 (stereo not shown) [ritodrine]
agonist screen: AKAR response to compound alone [4]: stimulated AKAR responses on their own
AKAR3 response in single cell imaging [3]: moderate and gradual response

Compound: AKAR3.2: PKA reporter fusion protein SEQ ID NO:4: cerulean fluorescent protein, FHA1, SEQ ID NO:3, circularly permuted YFP variant
dynamic range of the reporter [3]: 55-65%

emission ratio increase after addition of ATP ([6]; purified AKAR3, PKA catalytic subunit, 1 mM ATP, approximately 40 minutes): 29.1%±1.11%
FRET efficiency after phosphorylation ([6]; quantified using trypsin): 47.2%±7.67%
FRET efficiency before phosphorylation ([6]; quantified using trypsin): 38.8%±7.36%
Compound: AKAR3: PKA reporter fusion protein SEQ ID NO:1: ECFP 1-227, FHA1, PKA substrate linker SEQ ID NO:3, circularly permuted Venus
increase in emission ratio (yellow over cyan) of the reporter [3]: about 40%
